Laboratory results reported in patent US11130780B2, “Inhibitors of growth factor activation enzymes” (Washington University, priority 2015, dated 2021).
Like-named read-outs stand apart in the source and are kept apart here.

Tests used:
Format in all cases: biochemical
[1] = molecular target: T1, HGFA (Homo sapiens, UniProt Q04756); experiment: Fluorescent kinetic enzyme inhibitor assay of HGFA
T1 construct: His6 tag (N); seven amino acid spacer and seven amino acid TEV cleavage site (N); Honey Bee melittin signal peptide (N); made in house; host or cells: High 5 insect cells (baculovirus; virus raised in Sf9)
T1 sequence (Q04756 373-655): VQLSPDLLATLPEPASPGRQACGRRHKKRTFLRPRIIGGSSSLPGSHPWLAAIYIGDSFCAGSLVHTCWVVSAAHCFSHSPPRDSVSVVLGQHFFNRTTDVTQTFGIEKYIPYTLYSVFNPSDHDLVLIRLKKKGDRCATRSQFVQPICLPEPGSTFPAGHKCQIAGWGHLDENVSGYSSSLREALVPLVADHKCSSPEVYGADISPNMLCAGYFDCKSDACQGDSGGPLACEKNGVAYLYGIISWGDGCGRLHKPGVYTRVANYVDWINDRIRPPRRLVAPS
Outline: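 Recombinant His-tagged HGFA residues 373-655 from insect cells, with substrate at Km. Inhibitors in 11-point dilutions, 0-20 μM final, 2% DMSO, fluorescence (ex 380/em 460 nm) followed over time at room temperature. IC50 from four-parameter fit of mean velocity, average of three experiments.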

[2] = molecular target: T2, matriptase (Homo sapiens, UniProt Q9Y5Y6); experiment: Fluorescent kinetic enzyme inhibitor assay of matriptase; conditions: for IC50: Table 4.1; for Ki: Table 4.2, Boc-QAR-AMC substrate
T2 construct: Charles Craik, UCSF (obtained from another laboratory)
T2 sequence (Q9Y5Y6 615-855 limits assumed): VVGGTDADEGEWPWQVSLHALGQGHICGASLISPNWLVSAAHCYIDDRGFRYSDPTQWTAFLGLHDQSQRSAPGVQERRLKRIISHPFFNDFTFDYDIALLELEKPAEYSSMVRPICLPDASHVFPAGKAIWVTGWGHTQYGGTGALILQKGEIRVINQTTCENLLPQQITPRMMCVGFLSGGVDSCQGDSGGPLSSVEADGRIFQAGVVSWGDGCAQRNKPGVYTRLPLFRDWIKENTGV
Outline: (§1)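 Fluorescence (ex 380/em 460 nm) followed kinetically at room temperature; IC50 from four-parameter fit of mean velocity versus concentration, averaged over three experiments.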

[3] = molecular target: T3, hepsin (Homo sapiens, UniProt P05981); experiment: Fluorescent kinetic enzyme inhibitor assay of hepsin; conditions: for IC50: Table 4.1
T3 construct: purchased R&D Systems 4776-SE-010
T3 sequence (P05981 163-417 limits assumed): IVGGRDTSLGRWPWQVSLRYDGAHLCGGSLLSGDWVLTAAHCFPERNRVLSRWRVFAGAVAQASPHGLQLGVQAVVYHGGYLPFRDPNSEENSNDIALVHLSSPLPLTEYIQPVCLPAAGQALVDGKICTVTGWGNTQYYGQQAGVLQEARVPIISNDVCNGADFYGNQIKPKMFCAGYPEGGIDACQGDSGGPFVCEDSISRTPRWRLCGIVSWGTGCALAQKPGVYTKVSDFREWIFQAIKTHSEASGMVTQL
T3 sequence (P05981 45-162 partner limits assumed): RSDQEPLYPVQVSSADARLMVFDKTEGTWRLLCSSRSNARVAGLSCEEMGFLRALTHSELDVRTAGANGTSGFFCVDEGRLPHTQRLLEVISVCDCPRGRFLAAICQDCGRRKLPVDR
Outline: as §1

[4] = Table 4.2, Boc-QLR-AMC substrate, read-out: HGFA Ki
[5] = Table 4.2, Boc-QAR-AMC substrate, read-out: Hepsin Ki

Ki [1, 4] [nM]	Ki ([1]; read-out: Ki for HGFA) [nM]	fold more potent for matriptase versus HGFA [2]	IC50 [2] [nM]	Ki [2] [nM]	fold more potent for hepsin versus HGFA [3] [fold]	IC50 [3] [nM]	Ki [3, 5] [nM]	Ki ([3]; read-out: Ki for hepsin) [nM]	Structure (SMILES)	selectivity among HGFA, matriptase and hepsin [1]
58	–	–	–	0.69	–	–	0.58	–	CC(=O)N[C@@H](CCCCN)C(=O)N[C@@H](CCC(N)=O)C(=O)N[C@@H](Cc1ccccc1)C(=O)N[C@@H](CCCNC(=N)N)C(=O)c1nccs1 [Compound 5c, Ac-KQFR(SEQ ID NO: 4)-kt]	–
60	–	–	1	–	–	1	–	–	CC(=O)N[C@@H](CCCNC(=N)N)C(=O)N[C@@H](CCC(N)=O)C(=O)N[C@@H](CC(C)C)C(=O)N[C@@H](CCCNC(=N)N)C(=O)c1nccs1 [Compound 5e, Ac-RQLR(SEQ ID NO: 6)-kt]	–
12	–	–	14	–	–	5	–	–	CC(=O)N[C@@H](CCCCN)C(=O)N[C@@H](CCCNC(=N)N)C(=O)N[C@@H](CC(C)C)C(=O)N[C@@H](CCCNC(=N)N)C(=O)c1nccs1 [Compound 5g, Ac-KRLR(SEQ ID NO: 8)-kt]	–
21	–	–	31	–	–	0.3	0.21	–	CC(=O)N[C@@H](Cc1c[nH]c2ccccc12)C(=O)N[C@@H](CCCNC(=N)N)C(=O)N[C@@H](CC(C)C)C(=O)N[C@@H](CCCNC(=N)N)C(=O)c1nccs1 [Compound 5h, Ac-WRLR(SEQ ID NO: 9)-kt]	–
57	–	–	34	–	–	51	–	–	CC(=O)N[C@@H](CO)C(=O)N[C@@H](CCCCN)C(=O)N[C@@H](Cc1ccccc1)C(=O)N[C@@H](CCCNC(=N)N)C(=O)c1nccs1 [Compound 6c, Ac-SKFR(SEQ ID NO: 13)-kt]	HGFA selectivity over both hepsin and matriptase
24	–	–	24	–	–	5	–	–	CC(=O)N[C@@H](CO)C(=O)N[C@@H](CCCNC(=N)N)C(=O)N[C@@H](CC(C)C)C(=O)N[C@@H](CCCNC(=N)N)C(=O)c1nccs1 [Compound 6e, Ac-SRLR(SEQ ID NO: 15)-kt]	HGFA selectivity over both hepsin and matriptase
63	66	–	175	–	–	9	–	1.2	CC(=O)N[C@@H](CO)C(=O)N[C@@H](Cc1c[nH]c2ccccc12)C(=O)N[C@@H](CC(C)C)C(=O)N[C@@H](CCCNC(=N)N)C(=O)c1nccs1 [Compound 6g, Ac-SWLR(SEQ ID NO: 17)-kt]	HGFA selectivity over both hepsin and matriptase

Continued, compound first:

Structure (SMILES)	Ki [1, 4] [nM]	Ki ([1]; read-out: Ki for HGFA) [nM]	fold more potent for matriptase versus HGFA [2]	IC50 [2] [nM]	Ki [2] [nM]	fold more potent for hepsin versus HGFA [3] [fold]	IC50 [3] [nM]	Ki [3, 5] [nM]	Ki ([3]; read-out: Ki for hepsin) [nM]	selectivity among HGFA, matriptase and hepsin [1]
CC(=O)N[C@@H](CCCCN)C(=O)N[C@@H](CCC(N)=O)C(=O)N[C@@H](CC(C)C)C(=O)N[C@@H](CCCNC(=N)N)C(=O)c1nccs1 [Compound 5, Ac-KQLR(SEQ ID NO: 1)-kt]	70	53	50 fold	5	1.6	200	2	0.19	–	–
CC(=O)N[C@@H](CO)C(=O)N[C@@H](CCCCN)C(=O)N[C@@H](CC(C)C)C(=O)N[C@@H](CCCNC(=N)N)C(=O)c1nccs1 [Compound 6, Ac-SKLR(SEQ ID NO: 10)-kt]	–	81	only slightly more potent	48	–	70	–	1.2	–	–
N=C(N)c1ccc2cc(OC(=O)c3ccc(N=C(N)N)cc3)ccc2c1 [Nafamostat, reference compound]	25	–	–	–	–	–	2	0.53	–	–
